Patent US20230251260A1, “METHODS OF DETERMINING CANCER THERAPY” (YISSUM RESEARCH DEVELOPMENT COMPANY OF THE HEBREW …, priority 2020, published 2023)

Key:
[1] = test system: BR45 PDX; test: BR45 PDX in NSG mice treated by brachytherapy, tumor growth; assay type: in vivo, mouse; details: pretreatment prior to brachytherapy RT (12 Gy and 10 Gy)
Source text: Mouse models: Syngeneic mouse model: 2.0×10^5 4T1 cells were inoculated subcutaneously on 6-7 weeks old female Balb/c mice. Allogeneic model: BR45 tumors were induced on NSG mice either by injecting 4.0×10^6 cells […] or subcutaneously transplanting xenografts. After reached the desired tumor volume (80-100 mm3), mice were randomly grouped to around 8-10 per cage and treatment were initialized. Tumor sizes were regularly measured with an electronic calliper every two days and their volumes were obtained using the formula V=(W (2)×L)/2. Mice were kept under conventional pathogen-free conditions. All in-vivo experiments were performed with approval of the Hebrew University of Jerusalem IACUC.
Tumor inoculation: 4T1 mouse breast carcinoma mimics stage IV triple negative breast cancer in human. It is highly metastatic to lungs, lymph nodes, liver and bones after implantation in the mammary fat pad of immune-competent Balb/c mice. Primary tumors were harvested after euthanizing female mice using carbon dioxide (CO2) inhalation. Time elapsed from tumor inoculation varied from 2 weeks to 1 month. […]
Drugs were given usually by IP or gavage depending on the drug. […] During this period the tumor volumes were measured regularly to observe the action of the drug. […]

[2] = test system: 4T1 cells; test: Survival assay (methylene blue) of irradiated 4T1 cells; assay type: cell-based, mouse; details: drugs with RT, beginning 2 days prior to RT until 6 days post-RT
Procedure: Survival Analysis: Cells were seeded at 70% confluency and treated as needed for different timepoints. Cells were washed with PBS and fixed with 4% PFA for 10 min. at R.T. The fixed cells were stained with Methylene Blue (MB) for 1 hour at R.T., washed and air dried overnight. The color was extracted with 0.1M HCl for 1 hour at R.T. Absorbance was read at 630 nm.

Structure (SMILES) | tumor growth, response to RT [1] | cell survival / sensitization of 4T1 cells to RT [2]
C#Cc1cccc(Nc2ncnc3cc(OCCOC)c(OCCOC)cc23)c1 [erlotinib, Erlotinib] | did not improve the results of the treatment | –
C[C@@H](Oc1cc(-c2cnn(C3CCNCC3)c2)cnc1N)c1c(Cl)ccc(F)c1Cl [Crizotinib] | – | significantly less effective in sensitizing the cells to RT
